Results as given in ChEMBL document CHEMBL2440011, “Screening for inhibitors of the hepatitis C virus internal ribosome entry site RNA” (Bioorg Med Chem, 2013).
Active and inactive are the calls of the source. No cut-off for these calls is given here.

Experiments:
[1] = Binding affinity to 5'-terminal cyanine dye-labeled IRES subdomain 2a RNA (unknown origin) by FRET assay in presence of Mg2+
[2] = Binding affinity to cap RNA (unknown origin) assessed as inhibition of cap-dependent firefly luciferase reporter translation
[3] = Binding affinity to 5'-terminal cyanine dye-labeled IRES subdomain 2a RNA (unknown origin) at 200 uM by FRET assay in presence of tRNA
[4] = system: Internal ribosome entry site (IRES); assay: Binding affinity to HCV IRES RNA assessed as inhibition of RNA translation at […] by luciferase reporter gene assay; conditions: Hepacivirus hominis
[5] = Binding affinity to 5'-terminal cyanine dye-labeled IRES subdomain 2a RNA (unknown origin) at 200 uM by FRET assay

Activity [1] | inhibition [2] | Activity [3] | inhibition [4] | Activity [5] | Structure (SMILES)
Active | – | – | – | – | CN(C)CC1COc2ccc3nc4n(c3c2C1)CC(CN(C)C)CN4 (stereo not drawn)
Dose-dependent effect | inactive | Active | 30% | Active | CN(C)CCCNc1nc2ccc(N)cc2o1
Dose-dependent effect | – | – | – | – | CN(C)CCCn1c(N)nc2ccc3c(c21)CC(CN(C)C)CO3 (stereo not drawn)
– | – | – | – | Active | CN(C)CCCNc1nc2cc(N)ccc2o1
